Test results taken from publication PMC5056392, “CD4-mimetic sulfopeptide conjugates display sub-nanomolar anti-HIV-1 activity and protect macaques against a SHIV162P3 vaginal challenge” (Scientific Reports, 2016).
Where two headings read alike, the source gives them in different places.

Columns and labels:
[1] = system: SHIV162P3; conditions: TZM-bl cells; cited from earlier work
Description: (§1) Similarly, HEC gel formulated cyanovirin was s ...

[2] = system: SHIV; conditions: cited from earlier work
Description: as §1

[3] = system: HIV-1 MP568 (CRF02); test: microbe, parasite or virus in culture; type: cell-based; conditions: Human immunodeficiency virus 1, TZM-bl, 48 h, read-out: IC50 MP568 (CRF02)
Protocol: (§2) The IC50 of the various mCD4-conjugates were measured in TZM-bl cells (NIH AIDS Reagent Program, Germantown, MD 20874, US). This cell line expresses high densities of CD4, CCR5 and CXCR4. It contains a luciferase reporter gene under control of HIV LTR, which will be transcribed and translated into luciferase protein, if the cells get infected with HIV and start producing Tat. Briefly, 50 μl of TZM-bl cells (1 × 10^5 cells/mL) supplemented with 30 μg/mL DEAE dextran were incubated with a 50 μl of a 10-fold serial dilution of the compounds under investigation in 96-well flat bottom plates, prior to inoculation with 50 μl of various viruses (see Tables & and 2; 50, 100 or 200 TCID50 was used depending on the virus). As a positive control, 50 μl of compound-free medium was used and as a negative control, 100 μl of medium was added to 100 μl of TZM-bl cells. All conditions were done in triplicates. The plates were incubated for 48 hours (37 °C, 5% CO2). Subsequently, 120 μL of supernatants were removed, 75 μl of the luciferase substrate Steadylite (Perkin Elmer, Life Sciences, Zaventem, Belgium) were added to the wells and the plates were incubated at room temperature on an orbital shaker for 10 minutes. Next, the luciferase activity was measured using a TriStar LB941 luminometer (Berthold Technologies GmbH & Co. KG., Bad Wildbad, Germany) and expressed in relative light units (RLU) as a percentage of positive control wells. IC50 were calculated in GraphPad Prism 5.03 using non-linear regression (GraphPad Software, San Diego, CA, USA).

[4] = system: HIV-1 VI824; test: microbe, parasite or virus in culture; type: cell-based; conditions: Human immunodeficiency virus 1, TZM-bl, 48 h, read-out: IC50 VI824
Protocol: as §2

[5] = system: HIV-1 pWITO.c/2474; test: microbe, parasite or virus in culture; type: cell-based; conditions: Human immunodeficiency virus 1, TZM-bl, 48 h, read-out: IC50 pWITO.c/2474
Protocol: as §2

[6] = system: HIV-1 p246F10; test: microbe, parasite or virus in culture; type: cell-based; conditions: Human immunodeficiency virus 1, TZM-bl, 48 h, read-out: IC50 P246F10
Protocol: as §2

[7] = system: HIV-1 pTHRO.c/2626; test: microbe, parasite or virus in culture; type: cell-based; conditions: Human immunodeficiency virus 1, TZM-bl, 48 h, read-out: IC50 pTHRO.c/2626
Protocol: as §2

[8] = system: HIV-1 pZM247Fv2; test: microbe, parasite or virus in culture; type: cell-based; conditions: Human immunodeficiency virus 1, TZM-bl, 48 h, read-out: IC50 pZM247Fv2
Protocol: as §2

[9] = system: HIV-1 VI1888 (CRF01); test: microbe, parasite or virus in culture; type: cell-based; conditions: Human immunodeficiency virus 1, TZM-bl, 48 h, read-out: IC50 VI1888 (CRF01)
Protocol: as §2

[10] = system: HIV-1 Ca10-3 (CRF01); test: microbe, parasite or virus in culture; type: cell-based; conditions: Human immunodeficiency virus 1, TZM-bl, 48 h, read-out: IC50 Ca10-3 (CRF01)
Protocol: as §2

[11] = system: HIV-1 pREJO.c/2864 cl2; test: microbe, parasite or virus in culture; type: cell-based; conditions: Human immunodeficiency virus 1, TZM-bl, 48 h, read-out: IC50 pREJO.c/2864 cl2
Protocol: as §2

[12] = system: HIV-1 VI829; test: TZM-bl antiviral assay, VI829; type: cell-based; conditions: Human immunodeficiency virus 1; Table 2; C-R5; 10^-3 MOI, TZM-bl cells, 48 h; mean of at least 2 independent experiments, triplicates
Protocol: as §2, with “Subsequently, 120 μL of supernatants were removed, 75 μl of the luciferase substrate Steadylite (Perkin Elmer, Life Sciences, Zaventem, Belgium) were added to the wells and the plates were incubated at room temperature on an orbital shaker for 10 minutes.” left out

[13] = system: SHIV162P3; test: TZM-bl antiviral assay, SHIV162P3; type: cell-based, SHIV; conditions: Table 2; B-R5; 10^-3 MOI, TZM-bl cells, 48 h; mean of at least 2 independent experiments, triplicates
Protocol: as §2, with “Subsequently, 120 μL of supernatants were removed, 75 μl of the luciferase substrate Steadylite (Perkin Elmer, Life Sciences, Zaventem, Belgium) were added to the wells and the plates were incubated at room temperature on an orbital shaker for 10 minutes.” left out

[14] = system: HIV-1 IIIB; test: TZM-bl antiviral assay, IIIB; type: cell-based; conditions: Human immunodeficiency virus 1, IIIB; Table 2; B-X4; 10^-3 MOI, TZM-bl cells, 48 h; mean of at least 2 independent experiments, triplicates
Protocol: as §2, with “Subsequently, 120 μL of supernatants were removed, 75 μl of the luciferase substrate Steadylite (Perkin Elmer, Life Sciences, Zaventem, Belgium) were added to the wells and the plates were incubated at room temperature on an orbital shaker for 10 minutes.” left out

[15] = system: HIV-1 MN; test: TZM-bl antiviral assay, MN; type: cell-based; conditions: Human immunodeficiency virus 1; Table 2; B-X4; 10^-3 MOI, TZM-bl cells, 48 h; mean of at least 2 independent experiments, triplicates
Protocol: as §2, with “Subsequently, 120 μL of supernatants were removed, 75 μl of the luciferase substrate Steadylite (Perkin Elmer, Life Sciences, Zaventem, Belgium) were added to the wells and the plates were incubated at room temperature on an orbital shaker for 10 minutes.” left out

[16] = system: HIV-1 SF162; test: TZM-bl antiviral assay, SF162; type: cell-based; conditions: Human immunodeficiency virus 1; Table 2; B-R5; 10^-3 MOI, TZM-bl cells, 48 h; mean of at least 2 independent experiments, triplicates
Protocol: as §2, with “Subsequently, 120 μL of supernatants were removed, 75 μl of the luciferase substrate Steadylite (Perkin Elmer, Life Sciences, Zaventem, Belgium) were added to the wells and the plates were incubated at room temperature on an orbital shaker for 10 minutes.” left out

[17] = system: HIV strains from different subtypes; test: TZM-bl antiviral assay, whole panel of strains; type: cell-based, HIV-1; conditions: Human immunodeficiency virus 1, TZM-bl, read-out: active concentration across the panel
Protocol: as §2, with “Subsequently, 120 μL of supernatants were removed, 75 μl of the luciferase substrate Steadylite (Perkin Elmer, Life Sciences, Zaventem, Belgium) were added to the wells and the plates were incubated at room temperature on an orbital shaker for 10 minutes.” left out

[18] = system: HIV-1 VI820; test: TZM-bl antiviral assay, VI820; type: cell-based; conditions: Human immunodeficiency virus 1; Table 2; A-X4R5; 10^-3 MOI, TZM-bl cells, 48 h; mean of at least 2 independent experiments, triplicates
Protocol: as §2, with “Subsequently, 120 μL of supernatants were removed, 75 μl of the luciferase substrate Steadylite (Perkin Elmer, Life Sciences, Zaventem, Belgium) were added to the wells and the plates were incubated at room temperature on an orbital shaker for 10 minutes.” left out

[19] = system: HIV-1 Bal; test: TZM-bl antiviral assay, Bal; type: cell-based; conditions: Human immunodeficiency virus 1, BAL; Table 2; B-R5; 10^-3 MOI, TZM-bl cells, 48 h; mean of at least 2 independent experiments, triplicates
Protocol: as §2, with “Subsequently, 120 μL of supernatants were removed, 75 μl of the luciferase substrate Steadylite (Perkin Elmer, Life Sciences, Zaventem, Belgium) were added to the wells and the plates were incubated at room temperature on an orbital shaker for 10 minutes.” left out

[20] = system: TZM-bl cells; test: WST-1 cytotoxicity assay; type: cell-based; conditions: Table 2, 50% cytotoxic concentration, WST-1, 48 h
Protocol: The water soluble tetrazolium-1 (WST-1) cell proliferation assay is based on the cleavage of the tetrazolium salt WST-1 to a formazan dye by a complex cellular mechanism. Because this bioreduction is dependent on the glycolytic production of NAD(P)H in viable cells, the amount of formazan dye formed is correlates directly to the number of viable cells in a culture. Quantification is done by measuring absorbance at 450 nm in a multiwell plate reader. TZMbl cells (10^4 cells/well) were plated in a 96-well plate and a serial dilution of compound was added. 48 h later, cell proliferation reagent was added and cell viability was measured compared to untreated control cultures. Cell viability was plotted against the compound concentration and non-linear regression analysis was performed to calculate the 50% cytotoxic concentration (CC50).

[21] = system: HIV-1; conditions: vaginal gel formulation (Tenofovir) or vaginal ring (Dapivirin); cited from earlier work
Protocol: Microbicides offer distinct advantages as their use should reduce side effects associated with systemic treatment and they could prevent the establishment of viral founder populations. Up to now several molecules targeting the attachment and entry of HIV were tested in clinical trials, including surfactants, such as nonoxynol–9 and C31G that disrupt the viral lipid envelope and non-specific polyanions, such as carrageenan, cellulose sulfate, as well as a sulfonated naphthalene derivative (PRO2000), presumably mimicking heparan sulfate (HS) and blocking virus-cell interactions. ...

[22] = HEC gel formulated, applied at 0.5 to 2 mM

For `COc1ccnc2[nH]cc(C(=O)C(=O)N3CCN(C(=O)c4ccccc4)C[C@H]3C)c12` [BMS-378806], the IC50 [1] is given as 5.5 nM and the protection ([2]; administered at 5.5 mM) is given as 75%.

Work on `Cc1cc(C)c(Nc2ccnc(Nc3ccc(C#N)cc3)n2)c(C)c1` [TMC120 Dapivirine, Dapivirine] yielded an IC50 [3] of 1.1 nM, an IC50 [4] of 1.2 nM and an IC50 [5] of 1.1 nM. The IC50 [6] was 1.4 nM, the IC50 [7] was 1.9 nM and the IC50 [8] was 2.3 nM. It also gave an IC50 [9] of 2.1 nM, an IC50 [10] of 1.2 nM and an IC50 [11] of 1.6 nM. For the same molecule, the IC50 [12] was 1.3 nM, the IC50 [13] was greater than 1000 nM and the IC50 [14] was 0.84 nM. It also gave an IC50 [15] of 1.5 nM, an IC50 [16] of 1.3 nM and an IC50 [17] of 1 to 2 nM. The IC50 [18] was 2 nM, the IC50 [19] was 1.7 nM and the CC50 [20] was 2524 nM. For the same molecule, the “reduction in HIV-1 acquisition” value [21] was “up to 40%”.

In the case of `C[C@H](Cn1cnc2c(N)ncnc21)OCP(=O)(O)O` [Tenofovir], the “reduction in HIV-1 acquisition” value [21] is given as “up to 40%”.

For maraviroc, the protection ([2]; 500 μM intravaginally) is listed as 50% and the macaques remaining uninfected ([2]; 6 mM intravaginally) is listed as 6 of 7.

B1: cyanovirin: HEC gel formulated cyanovirin (protein, UniProt P81180 1-101, looked up)
Cyanovirin-N: LGKFSQTCYNSAIQGSVLTSTCERTNGGYNTSSIDLNSVIENVDGSLKWQPSNFIETCRNTQLAGSSELAAECKTRAQQFVSTKINLDDHIANIDGTLKYE
modifications: HEC gel formulation
For B1, the animals protected [2, 22] is given as 5 out of 6 and the protection [2, 22] is given as 83%.
